The test system of series [1] is HeLa cells. As to the kind of experiment: In vitro expression of firefly luciferase (Fluc) after treatment with Fluc mRNA/amino lipidated peptoid formulations, no PEG or 2% DMG-PEG2000. The class given is cell-based. Here is the method: The efficacy of mRNA/amino lipidated peptoid formulations was evaluated in vitro based on their ability to deliver the firefly luciferase (Fluc) reporter gene to cultured cells. Amino lipidated peptoids were combined with Fluc mRNA at a 5:1 w/w ratio, and the resulting particles were added to cultured HeLa cells at a dose of 100 ng/well (in 100 μL total volume). The resulting luciferase expression (RLU) was measured by a luminescence plate reader after 6 hours and 24 hours of treatment. […] In addition to evaluating nanoparticle complexes formed between mRNA cargos and amino lipidated peptoids alone, multicomponent formulations containing a small amount of PEG-lipid DMG-PEG2000 were also tested for in vitro Fluc mRNA delivery. In these formulations, DMG-PEG2000 was pre-mixed with candidate peptoid at an overall 2% incorporation (w/w), while maintaining the same 5:1 mass ratio of peptoid:mRNA used previously.

The nature of series [2]: mRNA encapsulation by fluorescence of Qubit RNA HS dye before and after lysis with Triton X-100. The class given is physicochemical. To be noted: percentage of mRNA encapsulation; Fluc mRNA/peptoid formulation, 5:1 mass ratio. Here is the method: (§1) The exemplary amino lipidated cationic peptoids described in Example 2 were combined with firefly luciferase (Fluc) mRNA to form nanoparticle compositions to be evaluated for therapeutic and/or prophylactic purposes in vitro or in vivo. The formulations were prepared according to the protocol of Example 3 and mixed by simple pipetting. The mRNA/peptoid formulation at a 5:1 mass ratio of peptoid:cargo were evaluated by dynamic light scattering (DLS) in order to determine the volume average particle size/diameter (nm) of the mRNA/peptoid complex and the size polydispersity index (PDI) within the formulation. The percentage of mRNA encapsulation for each formulation of the exemplary compounds were determined by fluorescence of the Qubit RNA HS (Invitrogen) dye before and after lysis of particles by Triton X-100.

The test system of series [3] is HeLa cells. As to the kind of experiment: In vitro Fluc expression with variable peptoid:mRNA mass ratio, 2% DMG-PEG2000. The class given is cell-based. To be noted: 24 h; for Observed Luciferase Expression (RLU) for Given Formulation Mass Ratio 2:1: 2% (w/w) DMG-PEG2000, peptoid:mRNA 2:1; for Observed Luciferase Expression (RLU) for Given Formulation Mass Ratio 3.5:1: 2% (w/w) DMG-PEG2000, peptoid:mRNA 3.5:1; for Observed Luciferase Expression (RLU) for Given Formulation Mass Ratio 5:1: 2% (w/w) DMG-PEG2000, peptoid:mRNA 5:1; for Observed Luciferase Expression (RLU) for Given Formulation Mass Ratio 7.5:1: 2% (w/w) DMG-PEG2000, peptoid:mRNA 7.5:1. Here is the method:
The charge ratio dependence of amino lipidated peptoid delivery vehicles was evaluated by formulating particles between Fluc mRNA and delivery vehicles at varying mass ratios. Formulations were varied between 2:1 and 7.5:1 peptoid:mRNA (w/w) ratios (2:1, 3.5:1, 5:1 and 7.5:1). In addition, the role of DMG-PEG2000 was also explored with the mass ratios, either by excluding DMG-PEG2000 or incorporating DMG-PEG2000 at 2% (w/w) relative to amino lipidated peptoid. Fluc expression from these formulations was measured in HeLa cells following treatment for 24 hours. […] FIGS. 6B and 6C show plots of the average bioluminescence (RLU) for HeLa cells treated with the formulations of exemplary amino lipidated cationic peptoid compounds 1-36, all formulated with 2% w/w DMG-PEG2000.

Series [4] can be described thus: MTT viability assay after treatment with Fluc mRNA/amino lipidated peptoid formulations. In kind it is cell-based. As to conditions: human, HeLa cells. The method, then:
Cellular viability was measured following treatment with Fluc mRNA/amino lipidated peptoid formulations by a traditional MTT viability assay. […] In this assay, cells were first treated with peptoid formulations at a final mRNA concentration of 100 ng/well for 8 hours. Cells were then left to grow for 48 hours, after which time they were exposed to 1.5 mg/mL 3-(4,5-dimethylthiazol-2-yl)-2,5-diphenyltetrazolium bromide (MTT) for 2 hours, then lysed using a solubilizing solution of 10% Triton-X 100 in acidic isopropanol (0.1N HCl). The signal corresponding to reduced formazan was normalized to untreated cells to provide a relative viability of each treated condition. […] In general, nearly all conditions maintained at least 80% viability with the only exceptions being formulations of compound 5, 34, and 35.

A short description of series [5]: Dynamic light scattering (DLS) of mRNA/peptoid formulations: particle size and polydispersity. The class given is physicochemical. As to conditions: Fluc mRNA/peptoid formulation; for Size PDI: size polydispersity index by DLS, 5:1 mass ratio; for Size (nm): volume average particle size/diameter by DLS, 5:1 mass ratio peptoid:cargo. The method, then:
as §1, with “To prepare nanoparticle formulations, the amino lipidated peptoid is mixed by pipetting with nucleic acid at a mass ratio between approximately 1:1 (peptoid:cargo) and 20:1. Prior to formulation, amino lipidated peptoid and nucleic acid cargo were diluted in ethanol and acidic buffer (PBS adjusted to pH 5.5 with 0.1 M HCl) respectively to a volume ratio of 1:3 and to target a final cargo concentration of approximately 0.05 mg/mL to 0.2 mg/mL. The exemplary” for “The exemplary”

The mark [6] stands for this setting: no PEG, peptoid:Fluc mRNA 5:1 w/w, 100 ng/well, 6 h of treatment.
Setting [7] is: no PEG, peptoid:Fluc mRNA 5:1 w/w, 100 ng/well, 24 h of treatment.
[8] abbreviates: with 2% (w/w) DMG-PEG2000, peptoid:mRNA 5:1, 6 h after treatment.
Setting [9] is: with 2% (w/w) DMG-PEG2000, peptoid:mRNA 5:1, 24 h after treatment.

Bounds are passed on as bounds.

For the compound `CCCCCCCCCCN(CC(N)=O)C(=O)CN(CCCCCCCCCC)C(=O)CN(CCc1ccccc1)C(=O)CN(CCc1ccccc1)C(=O)CN(CC1CCNCC1)C(=O)CN(CCc1ccccc1)C(=O)CN(CCc1ccccc1)C(=O)CN(CC1CCNCC1)C(=O)CN(CCc1ccccc1)C(=O)CN(CCc1ccccc1)C(=O)CNCC1CCNCC1` [Compound 33], the “Luciferase Expression (RLU) 6 h” value in series [1] (setting [6]) was found to be 4.61E+03 RLU. Moreover, in series [1] (setting [7]), the “Luciferase Expression (RLU) 24 h” value is 1.14E+04 RLU. Further, the “Luciferase Expression (RLU) 6 h” value in series [1] (setting [8]) turned out to be 4.64E+02 RLU. Also, the “Luciferase Expression (RLU) 24 h” value in series [1] (setting [9]) worked out at 5.17E+02 RLU. Also, in series [2], the “% Encapsulation” value is 82.0%. For the same compound, in series [3], the “Observed Luciferase Expression (RLU) for Given Formulation Mass Ratio 2:1” value was 1.76E+04 RLU, the “Observed Luciferase Expression (RLU) for Given Formulation Mass Ratio 3.5:1” value turned out to be 6.62E+02 RLU, the “Observed Luciferase Expression (RLU) for Given Formulation Mass Ratio 5:1” value was 7.46E+02 RLU and the “Observed Luciferase Expression (RLU) for Given Formulation Mass Ratio 7.5:1” value is recorded as 3.12E+02 RLU. The viability at 8 h, 500 ng/well in series [4] (Relative Viability (%) 2% PEG) amounted to 98%. The viability at 8 h, 500 ng/well in series [4] (Relative Viability (%) No PEG) was 99.4%. In series [5], the “Size PDI” value was 0.048 and the “Size (nm)” value is 435.7 nm.

As to `CCCCCCCCCCN(CC(N)=O)C(=O)CN(CCCCCCCCCC)C(=O)CN(CCCCCCCCCC)C(=O)CN(CCCCCCCCCC)C(=O)CN(CCc1ccccc1)C(=O)CN(CCc1ccccc1)C(=O)CN(CCNC)C(=O)CN(CCc1ccccc1)C(=O)CN(CCc1ccccc1)C(=O)CN(CCNC)C(=O)CN(CCc1ccccc1)C(=O)CN(CCc1ccccc1)C(=O)CN(CCNC)C(=O)CN(CCc1ccccc1)C(=O)CN(CCc1ccccc1)C(=O)CNCCNC` [Compound 26], the “Luciferase Expression (RLU) 6 h” value in series [1] (setting [6]) stood at 5.00E+00 RLU. Also, the “Luciferase Expression (RLU) 24 h” value in series [1] (setting [7]) is given as 1.07E+01 RLU. In series [1] (setting [8]), the “Luciferase Expression (RLU) 6 h” value came to 5.85E+02 RLU. The “Luciferase Expression (RLU) 24 h” value in series [1] (setting [9]) came to 6.45E+02 RLU. The “% Encapsulation” value in series [2] is listed as 35.7%. Besides, in series [3], the “Observed Luciferase Expression (RLU) for Given Formulation Mass Ratio 2:1” value is on record as 4.91E+02 RLU, the “Observed Luciferase Expression (RLU) for Given Formulation Mass Ratio 3.5:1” value was determined as 3.93E+03 RLU, the “Observed Luciferase Expression (RLU) for Given Formulation Mass Ratio 5:1” value turned out to be 6.06E+03 RLU and the “Observed Luciferase Expression (RLU) for Given Formulation Mass Ratio 7.5:1” value was 3.19E+03 RLU. Further, in series [4] (Relative Viability (%) 2% PEG), the viability at 8 h, 500 ng/well was 91.9%. Moreover, the viability at 8 h, 500 ng/well in series [4] (Relative Viability (%) No PEG) came to 98.8%.

`CCCCCCCCCCN(CC(N)=O)C(=O)CN(CCCCCCCCCC)C(=O)CN(CCCCCCCCCC)C(=O)CN(CCCCCCCCCC)C(=O)CN(CCc1ccccc1)C(=O)CN(CCc1ccccc1)C(=O)CN(CCNC)C(=O)CN(CCc1ccccc1)C(=O)CN(CCc1ccccc1)C(=O)CN(CCNC)C(=O)CN(CCc1ccccc1)C(=O)CN(CCc1ccccc1)C(=O)CNCCNC` [Compound 25]: the “Luciferase Expression (RLU) 6 h” value in series [1] (setting [6]) is 3.93E+02 RLU. In addition, the “Luciferase Expression (RLU) 24 h” value in series [1] (setting [7]) came out at 2.07E+03 RLU. Moreover, in series [1] (setting [8]), the “Luciferase Expression (RLU) 6 h” value is given as 1.81E+03 RLU. For the same compound, the “Luciferase Expression (RLU) 24 h” value in series [1] (setting [9]) worked out at 7.30E+02 RLU. In addition, the “% Encapsulation” value in series [2] came to 8.4%. Also, in series [3], the “Observed Luciferase Expression (RLU) for Given Formulation Mass Ratio 2:1” value came out at 3.86E+02 RLU, the “Observed Luciferase Expression (RLU) for Given Formulation Mass Ratio 3.5:1” value worked out at 8.41E+03 RLU, the “Observed Luciferase Expression (RLU) for Given Formulation Mass Ratio 5:1” value came to 5.03E+03 RLU and the “Observed Luciferase Expression (RLU) for Given Formulation Mass Ratio 7.5:1” value came out at 5.66E+03 RLU. Also, in series [4] (Relative Viability (%) 2% PEG), the viability at 8 h, 500 ng/well is 85.9%. Further, in series [4] (Relative Viability (%) No PEG), the viability at 8 h, 500 ng/well was 77.9%. In series [5], the “Size PDI” value turned out to be 0.021 and the “Size (nm)” value came to 773.3 nm.

Consider `CCCCCCCCCCCCCCCCCCN(CC(N)=O)C(=O)CN(CCCCCCCCCCCCCCCCCC)C(=O)CN(CCc1ccccc1)C(=O)CN(CCc1ccccc1)C(=O)CN(CCN)C(=O)CN(CCc1ccccc1)C(=O)CN(CCc1ccccc1)C(=O)CN(CCN)C(=O)CN(CCc1ccccc1)C(=O)CN(CCc1ccccc1)C(=O)CNCCN` [Compound 5], for which the “Luciferase Expression (RLU) 6 h” value in series [1] (setting [6]) was determined as 9.60E+01 RLU; in series [1] (setting [8]), 3.46E+02 RLU. Besides, the “Luciferase Expression (RLU) 24 h” value in series [1] (setting [7]) is listed as 5.36E+02 RLU; in series [1] (setting [9]), 1.22E+02 RLU. The “% Encapsulation” value in series [2] is on record as 88.3%. For the same compound, in series [3], the “Observed Luciferase Expression (RLU) for Given Formulation Mass Ratio 2:1” value amounted to 5.81E+02 RLU. Further, in series [3], the “Observed Luciferase Expression (RLU) for Given Formulation Mass Ratio 3.5:1” value was found to be 1.15E+03 RLU. Also, the “Observed Luciferase Expression (RLU) for Given Formulation Mass Ratio 5:1” value in series [3] came out at 9.21E+02 RLU. Moreover, the “Observed Luciferase Expression (RLU) for Given Formulation Mass Ratio 7.5:1” value in series [3] is recorded as 1.14E+03 RLU. Also, the results for the viability at 8 h, 500 ng/well in series [4] (Relative Viability (%) 2% PEG), in series [4] (Relative Viability (%) No PEG) and in series [4] (viability) were 91.2%, 56.8% and less than 80%, respectively. In series [5], the “Size PDI” value came out at 0.308. Moreover, the “Size (nm)” value in series [5] was found to be 364.7 nm.

On to `CCCCCCCCCCN(CC(N)=O)C(=O)CN(CCCCCCCCCC)C(=O)CN(CCCCCCCCCC)C(=O)CN(CCCCCCCCCC)C(=O)CN(CCCCCCCCCC)C(=O)CN(CCCCCCCCCC)C(=O)CN(CCCCCCCCCC)C(=O)CN(CCc1ccccc1)C(=O)CN(CCc1ccccc1)C(=O)CN(CCN)C(=O)CN(CCc1ccccc1)C(=O)CN(CCc1ccccc1)C(=O)CN(CCN)C(=O)CN(CCc1ccccc1)C(=O)CN(CCc1ccccc1)C(=O)CNCCN` [Compound 23], for which, in series [1] (setting [6]), the “Luciferase Expression (RLU) 6 h” value is 5.60E+01 RLU. Also, the “Luciferase Expression (RLU) 24 h” value in series [1] (setting [7]) is 9.47E+01 RLU. Besides, the “Luciferase Expression (RLU) 6 h” value in series [1] (setting [8]) came to 2.53E+01 RLU. Moreover, the “Luciferase Expression (RLU) 24 h” value in series [1] (setting [9]) is reported as 2.13E+01 RLU. Besides, the “% Encapsulation” value in series [2] is on record as 3.9%. In series [3], the “Observed Luciferase Expression (RLU) for Given Formulation Mass Ratio 2:1” value turned out to be 5.47E+01 RLU, the “Observed Luciferase Expression (RLU) for Given Formulation Mass Ratio 3.5:1” value turned out to be 1.42E+02 RLU, the “Observed Luciferase Expression (RLU) for Given Formulation Mass Ratio 5:1” value is given as 2.07E+02 RLU and the “Observed Luciferase Expression (RLU) for Given Formulation Mass Ratio 7.5:1” value is recorded as 1.55E+02 RLU. In addition, in series [4] (Relative Viability (%) 2% PEG), the viability at 8 h, 500 ng/well was 118%. Besides, in series [4] (Relative Viability (%) No PEG), the viability at 8 h, 500 ng/well is 108%.

Values taken from patent publication US20220323594A1, “LIPIDATED CATIONIC PEPTIDE-PEG COMPOSITIONS FOR NUCLEIC ACID DELIVERY” (NUTCRACKER THERAPEUTICS, INC., priority 2019, published 2022).
